Among the data in BindingDB's records for doi:10.1016/j.ab.2009.08.013 (Novartis Institute For Tropical Diseases, 2009) are IC50 and Kd values, retold here.

For assay [1], the target named is T1, Genome polyprotein [1394-1440]/[1476-1660] (dengue virus type 4, UniProt Q58HT7).
T1 construct: 1394-1440; 1476-1660
As to the kind of experiment: Enzyme Inhibition Assay. How it is done: (§1) Inhibitors were assayed in a 96-well plate format. […] The reaction was initiated by the addition of substrate Bz-nKRR-AMC. Reaction progress was monitored continuously by following the increase in fluorescence on a Tecan Safire2 plate reader. IC50 values of inhibitors were derived by fitting the calculated initial velocities to a nonlinear regression curve using GraphPad Prism software. Each point of the IC50 curve was measured in duplicate during a single experiment.

Assay [2] has as its target T2, Genome polyprotein [1424-1463]/[1502-1685] (West Nile virus, UniProt P06935).
T2 construct: 1424-1463; 1502-1685
T2 sequence (P06935 whole entry) 1: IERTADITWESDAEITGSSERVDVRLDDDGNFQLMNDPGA
T2 sequence (P06935 whole entry) 2: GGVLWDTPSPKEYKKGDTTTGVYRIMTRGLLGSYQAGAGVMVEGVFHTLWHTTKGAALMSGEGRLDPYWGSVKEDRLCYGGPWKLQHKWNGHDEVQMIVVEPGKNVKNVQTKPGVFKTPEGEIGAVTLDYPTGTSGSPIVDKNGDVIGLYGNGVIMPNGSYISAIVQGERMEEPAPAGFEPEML
As to the kind of experiment: Enzyme Inhibition Assay. The note with it: pH 7.5; 37 °C. The procedure: as §1

For assay [3], the target named is T3, Genome polyprotein [1394-1440]/[1476-1660,T1585M] (dengue virus type 3, UniProt P27915+Q6YMS4, T1585M).
T3 construct: 1394-1440; 1476-1660
T3 sequence (P27915 1394-1440, stated change not applied): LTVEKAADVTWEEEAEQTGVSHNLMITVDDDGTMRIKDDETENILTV
T3 sequence (Q6YMS4 1476-1660, looked up, stated change not applied): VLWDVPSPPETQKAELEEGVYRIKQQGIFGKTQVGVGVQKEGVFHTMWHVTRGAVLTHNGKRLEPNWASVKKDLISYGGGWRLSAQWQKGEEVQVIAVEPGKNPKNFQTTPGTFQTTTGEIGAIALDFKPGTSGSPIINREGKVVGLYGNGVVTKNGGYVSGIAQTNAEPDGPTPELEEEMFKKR
As to the kind of experiment: Enzyme Inhibition Assay. How it is done:
as §1

The target of assay [4] is T4, Genome polyprotein [1393-1439,E1407V]/[1476-1660,R1508K,A1566M] (dengue virus type 1, UniProt P17763+P33478, A1566M/E1407V/R1508K).
T4 construct: 1393-1439; 1476-1660
T4 sequence (P17763 1476-1660, looked up, stated change not applied): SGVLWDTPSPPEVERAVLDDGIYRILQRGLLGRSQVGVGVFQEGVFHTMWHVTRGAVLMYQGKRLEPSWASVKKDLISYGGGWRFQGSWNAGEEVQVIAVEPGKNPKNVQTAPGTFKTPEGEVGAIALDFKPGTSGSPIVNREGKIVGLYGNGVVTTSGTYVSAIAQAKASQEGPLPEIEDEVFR
T4 sequence (P33478 1393-1439, looked up, stated change not applied): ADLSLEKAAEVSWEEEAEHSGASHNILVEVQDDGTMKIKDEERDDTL
As to the kind of experiment: Enzyme Inhibition Assay. The note with it: pH 7.5; 37 °C. How it is done:
as §1

For assay [5], the target named is T5, Genome polyprotein [1066-1250,R1182K]/[1394-1440,K1405R,D1408E] (dengue virus type 2, UniProt P14340+P27914, D1408E/K1405R/R1182K).
T5 construct: 1066-1250; 1394-1440
T5 sequence (P14340 1394-1440, looked up, stated change not applied): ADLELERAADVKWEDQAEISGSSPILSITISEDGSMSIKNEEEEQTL
T5 sequence (P27914 1066-1250, looked up, stated change not applied): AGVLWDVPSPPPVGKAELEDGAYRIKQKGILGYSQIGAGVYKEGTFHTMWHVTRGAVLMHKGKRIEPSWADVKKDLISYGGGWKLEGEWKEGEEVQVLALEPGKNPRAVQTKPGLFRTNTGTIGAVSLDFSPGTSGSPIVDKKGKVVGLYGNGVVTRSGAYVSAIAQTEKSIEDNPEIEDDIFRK
As to the kind of experiment: Enzyme Inhibition Assay (IC50) and Fluorescence Quench Assay (KD). Particulars: pH 7.5; 37 °C. The procedure:
(§2) Inhibitors were assayed in a 96-well plate format. […] The reaction was initiated by the addition of substrate Bz-nKRR-AMC. Reaction progress was monitored continuously by following the increase in fluorescence on a Tecan Safire2 plate reader. IC50 values of inhibitors were derived by fitting the calculated initial velocities to a nonlinear regression curve using GraphPad Prism software. Each point of the IC50 curve was measured in duplicate during a single experiment. Compounds were tested for binding (KD) using fluorescence quench assay. Two protein solutions were prepared (2-5 uM protein with and without 40 uM compound) and were mixed in a microplate to obtain 12 different compound concentrations ranging from 0 to 40 uM. Then each dilution comprising 90 ul was transferred to a UV-Star 96-well microplate. […] Binding curves were analyzed according to the two-state model describing the formation of a 1:1 complex. Kd values were obtained from curve-fit of binding isotherms.

Assay [6] has as its target T2, Genome polyprotein [1424-1463]/[1502-1685]. Described as above. The note with it: pH 7.5; 37 °C. How it is done: as §2
For assay [7], the target named is T5, Genome polyprotein [1066-1250,R1182K]/[1394-1440,K1405R,D1408E]. As to the kind of experiment: Enzyme Inhibition Assay. The note with it: pH 7.5; 37 °C. How it is done: as §1

Non-standard residues stand in square brackets, D forms with d. Residues, ends and D or L forms follow the SMILES beside them. *: point of attachment. Nle = CCCC[C@H](N)C(=O)O; Bz = O=C(c1ccccc1)* Some results are limits rather than exact numbers.

T1 sequence (Q58HT7 1394-1440): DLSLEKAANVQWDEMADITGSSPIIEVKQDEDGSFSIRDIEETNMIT
T1 sequence (Q58HT7 1476-1660): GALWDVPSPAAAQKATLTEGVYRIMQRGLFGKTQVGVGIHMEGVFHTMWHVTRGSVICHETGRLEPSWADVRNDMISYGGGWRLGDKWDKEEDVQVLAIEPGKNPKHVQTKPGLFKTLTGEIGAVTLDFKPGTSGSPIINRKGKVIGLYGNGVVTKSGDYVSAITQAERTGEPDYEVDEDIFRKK

As usually defined, the IC50 is the concentration at which inhibition is half-maximal. The low end stands for greater potency in that assay, the high end for weaker potency in that assay. As usually defined, the Kd is a measure of binding affinity in units of concentration. Read a low Kd as a tighter complex. Regarding `c1ccc2c(Nc3ccc(C4=NCCN4)cc3)nnc(Nc3ccc(C4=NCCN4)cc3)c2c1` [phthalazine-based compound, 8], the half-maximal inhibitory concentration (IC50) in assay [1] amounted to 19.8 µM; in assay [2], 16 µM; in assay [3], 27.9 µM; in assay [4], 21.4 µM; in assay [5], 10.2 µM. Further, in assay [5], binding was characterised by a dissociation constant (Kd) of 16.3 µM.
For the compound `NCc1ccc(Nc2nnc(Nc3ccc(C4=NCCN4)cc3)c3ccccc23)cc1` [phthalazine-based compound, 5], the 50% inhibitory concentration (IC50) was found to be 8.2 µM in assay [1], 8.7 µM in assay [3], 12.3 µM in assay [4] and 5.8 µM in assay [5]. For the same compound, the Kd in assay [6] worked out at 100 µM; in assay [5] it was 18.6 µM.
On to `c1ccc2c(Nc3ccc4c(c3)CNCC4)nnc(Nc3ccc(C4=NCCN4)cc3)c2c1` [phthalazine-based compound, 4], for which the IC50 in assay [1] was 64.8 µM; in assay [3], 100 µM; in assay [4], 233 µM; in assay [5], 27.4 µM. The Kd in assay [6] worked out at 4.6 µM; in assay [5], 22.9 µM.
As for `c1ccc2c(Nc3ccc(C4=NC5CCCCC5N4)cc3)nnc(Nc3ccc(C4=NC5CCCCC5N4)cc3)c2c1` (configuration not stated) [phthalazine-based compound, 3], the IC50 in assay [1] was found to be 13.6 µM; in assay [3], 8.5 µM; in assay [4], 10.7 µM; in assay [6], 22 µM; in assay [5], 1.1 µM. Further, the values for the Kd in assay [6] and in assay [5] were 90 µM and 7.7 µM, respectively.
On to `c1ccc2c(Nc3ccc4c(c3)CCNC4)nnc(Nc3ccc(C4=NCCN4)cc3)c2c1` [phthalazine-based compound, 6], for which the IC50 was determined as 43 µM in assay [1]; 86 µM in assay [3]; 170 µM in assay [4]; 6.2 µM in assay [6]; 55 µM in assay [5]. Moreover, the Kd in assay [6] was determined as 7 µM; in assay [5] it was 54 µM.
Consider `COC(=O)c1ccc(-c2ccc(Nc3nnc(Nc4ccc(C5=NCCN5)cc4)c4ccccc34)cc2)cc1` [phthalazine-based compound, 7], for which the IC50 came to 1.3 µM in assay [1]; 1 µM in assay [3]; 2.72 µM in assay [4]; 2.2 µM in assay [6]; 1.6 µM in assay [5].
On to `CC1CNC(c2ccc(Nc3nnc(Nc4ccc(C5=NC(C)CN5)cc4)c4ccccc34)cc2)=N1` (configuration not stated) [phthalazine-based compound, 1], for which the IC50 in assay [1] is 32.8 µM; in assay [3] it was 17.5 µM; in assay [4], 36.4 µM; in assay [5] it was 6 µM. Besides, the dissociation constant Kd was 21 µM in assay [6] and 7.2 µM in assay [5].
As for `c1ccc(-c2ccc(Nc3nnc(Nc4ccc(C5=NCCN5)cc4)c4ccccc34)cc2)cc1` [phthalazine-based compound, 2], the IC50 was 2 µM in assay [1]; 1.6 µM in assay [3]; 2 µM in assay [4]; 3.6 µM in assay [6]; 2.3 µM in assay [5].
Take `CCCC[C@H](NC(=O)c1ccccc1)C(=O)N[C@@H](CCCCN)C(=O)N[C@@H](CCCNC(=N)N)C(=O)N[C@H](C=O)CCCNC(=N)N` [Bz-Nle-Lys-Arg-Arg-H] (Bz-[Nle]KRR-aldehyde): the 50% inhibitory concentration (IC50) in assay [1] was 1.4 µM; in assay [3], 7.9 µM; in assay [4] it was 11.8 µM; in assay [7], 8.9 µM.
Regarding `Nc1ccc2c(Nc3ccc(C4=NCCN4)cc3)nnc(Nc3ccc(C4=NCCN4)cc3)c2c1` [phthalazine-based compound, 9], the 50% inhibitory concentration (IC50) in assay [1], in assay [3], in assay [4] and in assay [5] was more than 100 µM in each case. The compound also displayed a Kd in assay [5] of 100 µM.
